Data set [1] concerns HT1080 fibrosarcoma cells. As to conditions: cited from earlier work. From the text: Thus, in the present work, we investigated the effects of the anti-migratory uPAcyclin decapeptide, binding to the αV integrin subunit. This cyclic decapeptide is derived from a non-catalytic region of the human urokinase (uPA) plasminogen activator. The growth factor domain (GFD, residues 1-49) and the connecting peptide region (CP, residues 132-158) confer to the full uPA a clearcut motogen activity. While the GFD binds to the urokinase receptor (uPAR), the CP region binds to the αV integrin subunit. […] The primary sequence of this cyclic peptide, derived from the connecting peptide region (CP) of the serin protease urokinase (uPA), is reported in Figure 1A. As assessed by a previous conformational analysis of uPAcyclin performed in water solution, about half of the peptide molecules ...

For data set [2], the system named is U138-MG cells. Briefly: Cell viability/proliferation (Trypan blue), U138-MG. The format is cell-based, human. As to conditions: 1 nM or 100 nM, 72–96 h. The procedure: Cell viability was tested in DMEM/10% FBS, in the presence of 1 nM or 100 nM uPAcyclin, either by Trypan blue exclusion or by thiazolyl blue tetrazolium bromide (MTT) assays, as specified in the figure legends. For the Trypan blue assay, 4 × 10^4 U87-MG, U251-MG, U138-MG, and C6 cells/sample were grown in 12-well plates, and followed for 24, 48 and 72 h. As a negative control, the cells were grown in a serum-free medium. Then, the cells were detached, stained with a 0.2% (w/v) Trypan blue solution, counted using a Burker chamber (T0 = 100%), and reported as number of viable cells/total.

In data set [3] the test system is C6 cells. Kind of data set: Wound healing assay, C6. The format is cell-based, rat. The procedure:
The wound healing assay or scratch test was performed as previously reported. Briefly, 6 × 10^3 U87-MG cells were seeded in multiwell-12 plates containing culture inserts for live cell analysis (Ibidi, Gmbh, Martinsried, Germany) and grown to confluence in DMEM/10% FBS for 24 h. After removing the inserts, the cells were pre-treated for 40 min at 37 °C with uPAcyclin or diluents at the indicated concentrations, and then incubated in DMEM/3% FBS for 24 h. The images were taken using the Inverted Microscope Leica DMI6000 DFC 402 (Leica Microsystems, Milan, Italy). A total of 10 × 10^4 C6 cells were grown to confluence in 12-well plates, in the presence of DMEM/10% FBS. […] To quantitate cell migration, a rectangle covering the wound edges is drawn on the T0 image and is further applied to the single photograms of each sample. The average margin distance is measured at three points and the results are expressed as percentage wound width of the T0 distance, taken as 100%.
Figure 5 Wound healing assay of U87-MG and C6 cells, in the presence of uPAcyclin. […] (C) For both U87-MG and C6, the wound width at time 0 is taken as 100% and the wound width at T24 or T16 is calculated as relative to that (* p-value < 0.05; ** p-value < 0.005; *** p-value < 0.001).

For data set [4], the system named is U251-MG cells. Kind of data set: Boyden chamber Matrigel invasion, U251-MG. As to conditions: for invasion, % of basal, average 2 expts: mean of 2 expts; for invasion, % of basal, average expt 1: mean of expt 1; for invasion, % of basal, average expt 2: mean of expt 2; for invasion, % of basal, T-test list: single replicates of both expts. The data set is classed as cell-based, human. The procedure:
The migration and invasion assays were performed using Boyden chambers and 8 µm pore size PVP-free filters coated with 50 µg/mL of collagen type VI (Sigma), as previously described. For the invasion assays, collagen-coated filters were further coated with 50 µg/mL Matrigel^TM (Sigma). Briefly, 11 × 10^4 U87-MG, 4 × 10^4 U251-MG, or 4 × 10^4 U138-MG/sample were pre-treated for 40 min at 37 °C with the indicated effectors. Then, the cells were allowed to migrate for 3 h or to invade for 5 h at 37 °C toward 5% FBS in DMEM/0.1% BSA. At the end of both assays, the cells on the lower filter surface were fixed, stained with haematoxylin, and counted under an optical microscope (Zeiss Axiophot, Carl Zeiss, Milan, Italy) at 20× magnification. The migration and invasion experiments were conducted in triplicate for U87-MG and in duplicate for U251-MG and U138-MG. The migrated or invaded cells were reported as percentage of basal migration or invasion in the presence of DMEM/0.1% BSA, taken as 100%, and analyzed as reported in Section 2.11.
Figure 4 Effect of uPAcyclin on matrix invasion of U87-MG, U251-MG, and U138-MG GBM cells. Quantitative analysis of U87-MG (A), U251-MG (B), and U138-MG (C) invasion. A total of 11 × 10^4 U87-MG or […] U251-MG or U138-MG/sample were pre-treated for 40 min at 37 °C with uPAcyclin (100 nM, 1 µM), anti-αV polyclonal (anti-αV-Pclonal) or monoclonal (anti-αV MoAb) antibody, or anti-actin polyclonal antibody (anti-actin), and then assayed in Boyden chambers at 37 °C, either for basal (BSA) or FBS-dependent invasion (5% FBS) for 5 h at 37 °C. Data are expressed as in the legend to Figure 3. Results are expressed as percentages with respect to the basal invasion, considered as 100% (* p-value < 0.05; ** p-value < 0.005; *** p-value < 0.001).

The mark [5] stands for this setting: 100 nM, 5% FBS, 5 h, expt 1, duplicates.
Setting [6] is: 100 nM, 5% FBS, 5 h, expt 2, duplicates.
The mark [7] stands for this setting: 1 µM, 5% FBS, 5 h, expt 1, duplicates.
Setting [8] is: 1 µM, 5% FBS, 5 h, expt 2, duplicates.

Values joined by “and” are separate entries in the source; they are usually repeats but may differ in a detail not shown here. Equal entries are not always repeated.

As for “Ac-K^1P[ESPPEELK^10]-NH2 (sidechain bridge or staple) [uPAcyclin]”, the lung metastases entry in data set [1] (mice injected with HT1080 fibrosarcoma cells, ref [29]) is “prevent lung metastases”. The metastatic lung spreading result in data set [1] (nude mice, ref [25]) is “markedly inhibits metastatic lung spreading in nude mice”. Also, the proliferation/viability entry in data set [2] was “unaffected by uPAcyclin, regardless of the concentration employed”. Also, the “wound closure, in words” value in data set [3] (10 pM or 100 nM, C6, 16 h) was “dose-dependent inhibition of wound closure”. Also, in data set [3] (C6, abstract), the “reduction of wound healing rate closure” value came out at 50%. Besides, the reduction in invasion in data set [4] (100 nM, U251-MG, 5% FBS, 5 h) is 50–60%. Besides, the invaded cell number/field in data set [4] (setting [5]) was 14 cell number/field; in data set [4] (setting [6]), 15 cell number/field and 14 cell number/field; in data set [4] (setting [7]) it was 11 cell number/field and 9 cell number/field; in data set [4] (setting [8]) it was 12 cell number/field and 10 cell number/field. The “invasion, % of basal” value was 156% in data set [4] (setting [5]); 136% and 127% in data set [4] (setting [6]); 122% and 100% in data set [4] (setting [7]); 109% and 91% in data set [4] (setting [8]). The “invasion, % of basal, average 2 expts” value in data set [4] (100 nM, 5% FBS, 5 h) was 144%; in data set [4] (1 µM, 5% FBS, 5 h), 106%. Besides, the “invasion, % of basal, average expt 1” value in data set [4] (100 nM, 5% FBS, 5 h) is given as 156%; in data set [4] (1 µM, 5% FBS, 5 h), 111%. Further, the “invasion, % of basal, average expt 2” value in data set [4] (100 nM, 5% FBS, 5 h) is recorded as 132%; in data set [4] (1 µM, 5% FBS, 5 h), 100%. In addition, the “invasion, % of basal, T-test list” value in data set [4] (100 nM) is 156 and 136 and 127; in data set [4] (1 µM), 122 and 100 and 109 and 91. Further, the “invasion, in words” value in data set [4] (1 µM, U251-MG, 5% FBS, 5 h) was “reduced invasion to basal levels”.

The values are drawn from PMC10571957, “αV-Integrin-Dependent Inhibition of Glioblastoma Cell Migration, Invasion and Vasculogenic Mimicry by the uPAcyclin Decapeptide” (Cancers, 2023).
